Data: paper PMC8664850, “Design, synthesis, and biological evaluation of novel urolithins derivatives as potential phosphodiesterase II inhibitors” (Scientific Reports, 2021)

What was measured:
[1] = target: T1, Phosphodiesterase II (PDE2) (Homo sapiens, UniProt O00408); assay: PDE2 enzyme inhibitory activity, AlphaScreen cAMP kit method; format: biochemical; details: in vitro, enzyme level, seven concentrations, mean of at least three experiments
T1 construct: the recombinant plasmid pET15b-PDE2A (580–941) was donated; made in house; host or cells: E. coli BL21-Codon Plus (DE3)
T1 sequence (O00408 580-941): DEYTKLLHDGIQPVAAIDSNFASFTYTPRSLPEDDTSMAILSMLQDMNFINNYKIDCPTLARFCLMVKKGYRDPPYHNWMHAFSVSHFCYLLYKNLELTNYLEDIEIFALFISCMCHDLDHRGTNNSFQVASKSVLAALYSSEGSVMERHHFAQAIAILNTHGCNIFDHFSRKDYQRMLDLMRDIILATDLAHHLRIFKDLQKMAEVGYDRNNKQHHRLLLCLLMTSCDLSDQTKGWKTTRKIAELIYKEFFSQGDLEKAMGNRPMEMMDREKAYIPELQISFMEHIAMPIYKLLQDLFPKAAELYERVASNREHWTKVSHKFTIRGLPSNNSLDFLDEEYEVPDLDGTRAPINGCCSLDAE
Description: The AlphaScreen kit method was used to detect PDE2 inhibitory activity of the 27 synthesized compounds (2a–n and 4a–m) in vitro, each diluted at seven concentrations, and each carried out with three sets of parallel experiments. The IC50 values were obtained by fitting calculations using software Graphpad Prism 7.

| SMILES | IC50 [1] | melting point |
| --- | --- | --- |
| Cc1ccc2c(c1)c(=O)oc1cc(O)ccc12 [Compound 1, 3-hydroxy-8-methyl-6H-benzo [C]chromen-6-one] | > 100 µM |  |
| CCOc1ccc2c(c1)oc(=O)c1cc(C)ccc12 [Compound 2a, 3-ethoxy-8-methyl-6H-benzo[c]chromen-6-one] | > 100 µM |  |
| CCCOc1ccc2c(c1)oc(=O)c1cc(C)ccc12 [Compound 2b, 8-methyl-3-propoxy-6H-benzo[c]chromen-6-one] | > 100 µM | 112.3 to 112.6 °C |
| Cc1ccc2c(c1)c(=O)oc1cc(OC(C)C)ccc12 [Compound 2c, 3-isopropoxy-8-methyl-6H-benzo[c]chromen-6-one] | > 100 µM | 102.3 to 103 °C |
| CCC(C)Oc1ccc2c(c1)oc(=O)c1cc(C)ccc12 (centres unmarked) [Compound 2d, 3-(sec-butoxy)-8-methyl-6H-benzo[c]chromen-6-one] | > 100 µM | 62.6 to 63.4 °C |
| CCCCCOc1ccc2c(c1)oc(=O)c1cc(C)ccc12 [Compound 2e, 8-methyl-3-(pentyloxy)-6H-benzo[c]chromen-6-one] | 34 µM |  |
| Cc1ccc2c(c1)c(=O)oc1cc(OCC3CCCC3)ccc12 [Compound 2f, 3-(cyclopentylmethoxy)-8-methyl-6H-benzo[c]chromen-6-one] | > 100 µM | 122.8 to 123.6 °C |
| Cc1ccc2c(c1)c(=O)oc1cc(OCC3CCCO3)ccc12 (centres unmarked) [Compound 2g, 8-methyl-3-((tetrahydrofuran-2-yl)methoxy)-6H-benzo[c]chromen-6-one] | > 100 µM | 122.8 to 123.6 °C |
| Cc1ccc2c(c1)c(=O)oc1cc(OCC3OCCO3)ccc12 [Compound 2h, 3-((1,3-dioxolan-2-yl)methoxy)-8-methyl-6H-benzo[c]chromen-6-one] | > 100 µM | 148.2 to 148.8 °C |
| Cc1ccc2c(c1)c(=O)oc1cc(OCCC3OCCO3)ccc12 [Compound 2i, 3-(2-(1,3-dioxolan-2-yl)ethoxy)-8-methyl-6H-benzo[c]chromen-6-one] | > 100 µM |  |
| Cc1ccc2c(c1)c(=O)oc1cc(OCC3CCCCC3)ccc12 [Compound 2j, 3-(cyclohexylmethoxy)-8-methyl-6H-benzo[c]chromen-6-one] | 65.7 µM | 113.3 to 115.1 °C |
| Cc1ccc2c(c1)c(=O)oc1cc(OCC3CCOCC3)ccc12 [Compound 2k, 8-methyl-3-((tetrahydro-2H-pyran-4-yl)methoxy)-6H-benzo[c]chromen-6-one] | > 100 µM | 148 to 148.6 °C |
| Cc1ccc2c(c1)c(=O)oc1cc(OCc3ccccc3F)ccc12 [Compound 2l, 3-((2-fluorobenzyl)oxy)-8-methyl-6H-benzo[c]chromen-6-one] | > 100 µM | 154.9 to 155.5 °C |
| Cc1ccc2c(c1)c(=O)oc1cc(OCCC3OCCCO3)ccc12 [Compound 2m, 3-(2-(1,3-dioxan-2-yl)ethoxy)-8-methyl-6H-benzo[c]chromen-6-one] | > 100 µM | 170.1 to 172 °C |
| COc1cc(COc2ccc3c(c2)oc(=O)c2cc(C)ccc23)cc(OC)c1 [Compound 2n, 3-((3,5-dimethoxybenzyl)oxy)-8-methyl-6H-benzo[c]chromen-6-one] | > 100 µM | 158.7 to 160.2 °C |
| O=c1oc2cc(O)ccc2c2c1CCCC2 [Compound 3, 3-Hydroxy-7,8,9,10-tetrahydro-6H-benzo[c]chromen-6-one] | 93.2 µM |  |
| CCOc1ccc2c3c(c(=O)oc2c1)CCCC3 [Compound 4a, 3-ethoxy-7,8,9,10-tetrahydro-6H-benzo[c]chromen-6-one] | > 100 µM | 104.2 to 105.6 °C |
| CCCOc1ccc2c3c(c(=O)oc2c1)CCCC3 [Compound 4b, 3-propoxy-7,8,9,10-tetrahydro-6H-benzo[c]chromen-6-one] | > 100 µM | 107.1 to 108.3 °C |
| CC(C)Oc1ccc2c3c(c(=O)oc2c1)CCCC3 [Compound 4c, 3-isopropoxy-7,8,9,10-tetrahydro-6H-benzo[c]chromen-6-one] | 34.3 µM | 85.4 to 87.5 °C |
| CCC(C)Oc1ccc2c3c(c(=O)oc2c1)CCCC3 (centres unmarked) [Compound 4d, 3-(sec-butoxy)-7,8,9,10-tetrahydro-6H-benzo[c]chromen-6-one] | > 100 µM | 74 to 74.2 °C |
| CCCCCOc1ccc2c3c(c(=O)oc2c1)CCCC3 [Compound 4e, 3-(pentyloxy)-7,8,9,10-tetrahydro-6H-benzo[c]chromen-6-one] | > 100 µM | 110.6 to 112.4 °C |
| O=c1oc2cc(OCC3CCCO3)ccc2c2c1CCCC2 (centres unmarked) [Compound 4f, 3-((tetrahydrofuran-2-yl)methoxy)-7,8,9,10-tetrahydro-6H-benzo[c]chromen-6-one] | > 100 µM | 112.2 to 114 °C |
| O=c1oc2cc(OCC3OCCO3)ccc2c2c1CCCC2 [Compound 4g, 3-((1,3-dioxolan-2-yl)methoxy)-7,8,9,10-tetrahydro-6H-benzo[c]chromen-6-one] | > 100 µM | 128.1 to 129.5 °C |
| O=c1oc2cc(OCCC3OCCO3)ccc2c2c1CCCC2 [Compound 4h, 3-(2-(1,3-dioxolan-2-yl)ethoxy)-7,8,9,10-tetrahydro-6H-benzo[c]chromen-6-one] | > 100 µM | 111 to 112.3 °C |
| O=c1oc2cc(OCC3CCCCC3)ccc2c2c1CCCC2 [Compound 4i, 3-(cyclohexylmethoxy)-7,8,9,10-tetrahydro-6H-benzo[c]chromen-6-one] | > 100 µM | 107.2 to 109.3 °C |
| O=c1oc2cc(OCC3CCOCC3)ccc2c2c1CCCC2 [Compound 4j, 3-((tetrahydro-2H-pyran-4-yl)methoxy)-7,8,9,10-tetrahydro-6H-benzo[c]chromen-6-one] | > 100 µM | 124.6 to 125.2 °C |
| O=c1oc2cc(OCCC3OCCCO3)ccc2c2c1CCCC2 [Compound 4k, 3-(2-(1,3-dioxan-2-yl)ethoxy)-7,8,9,10-tetrahydro-6H-benzo[c]chromen-6-one] | > 100 µM | 107.5 to 108.4 °C |
| O=c1oc2cc(OCc3ccccc3F)ccc2c2c1CCCC2 [Compound 4l, 3-((2-fluorobenzyl)oxy)-7,8,9,10-tetrahydro-6H-benzo[c]chromen-6-one] | > 100 µM | 124.2 to 125.6 °C |
| COc1cc(COc2ccc3c4c(c(=O)oc3c2)CCCC4)cc(OC)c1 [Compound 4m, 3-((3,5-dimethoxybenzyl)oxy)-7,8,9,10-tetrahydro-6H-benzo[c]chromen-6-one] | > 100 µM | 98.5 to 99.2 °C |
